The values that follow come from patent US5304554A, “4-[(alkyl or dialkyl)amino]quinolines and their method of preparation” (Emory University, priority 1992, dated 1994).

“Also recorded” adds a separate entry of the source. Where only a bound is given, the exact number is not on record here.

In one series the test system is HIV-1 (strain LAV). The series can be described thus: Anti-HIV-1 activity in human PBM cells infected with HIV-1 (strain LAV), reverse transcriptase readout. The conditions noted are these: Human immunodeficiency virus 1, PBMC, read-out: Median effective concentration (EC50) against HIV-1. It is filed as cell-based. The procedure:
The median effective concentrations (EC50) of selected quinolines against HIV-1 were determined in human blood mononuclear (PBM) cells infected with HIV-1 (strain LAV) as described below. […] It appears that the presence of a heteraromatic substituent at position 2 of the quinoline enhances the anti-HIV-1 activity of the 4-[(alkyl and dialkyl)amino]quinoline derivative. The anti-HIV-1 activity appears to be diminished in compounds with large substituents attached to the 4-amino group.
The following procedure was used to determine the EC50 values for selected compounds.
A. Three-day-old phytohemagglutinin-stimulated PBM cells (10^6 cells/ml) from hepatitis B and HIV-1 seronegative healthy donors were infected with HIV-1 (strain LAV) at a concentration of about 100 times the 50% tissue culture infectious dose (TICD 50) per ml and cultured in the presence and absence of various concentrations of quinolines.
B. Approximately 45 minutes after infection, medium, with the compound to be tested (2 times the final concentration in medium) or without compound, was added to the flasks (5 ml; final volume 10 ml). AZT was used as a positive control.
C. The cells were exposed to HIV (about 2×10^5 dpm/ml, as determined by reverse transcriptase assay) and then placed in a CO2 incubator. HIV-1 (strain LAV) was obtained from the Center for Disease Control, Atlanta, Ga. The methods used for culturing the PBM cells, harvesting the virus and determining the reverse transcriptase activity were those described by McDougal et al. (J. Immun. Meth. 76, 171-183, 1985) and Spira et al. (J. Clin. Meth. 25, 97-99, 1987), except that fungizone was not included in the medium (see Schinazi, et al., Antimicrob. Agents Chemother. 32, 1784-1787 (1988)). The reverse transcriptase activity in the virus-infected control was about 2×10^5 dpm per ml. Blank and uninfected cell control values were about 300 and 1,000 dpm, respectively.
D. On day 6, the cells and media were transferred to a 15 ml tube and centrifuged at about 900 g for 10 minutes. Five ml of supernatant were removed and the virus concentrated by centrifugation at 40,000 rpm for 30 minutes (Beckman 70.1 Ti rotor). The solubilized virus pellet was processed for determination of the levels of reverse transcriptase. Results are expressed in dpm/ml of sampled supernatant.
The median effective (EC50) concentrations for derivatized quinolines, were determined by the median effect method (Antimicrob. Agents Chemother. 30: 491-498, 1986). Briefly, in the median effect method, the percent inhibition of virus, as determined from measurements of reverse transcriptase, is plotted versus the micromolar concentration of compound. The EC50 is the concentration of compound at which there is a 50% inhibition of viral replication.

Series [1] can be described thus: Toxicity (growth) in uninfected human peripheral blood mononuclear (PBM) cells. It is filed as cell-based. The conditions noted are these: 6 days, trypan blue exclusion, read-out: IC50, growth of uninfected PBM cells. The procedure: The toxicity of 6a,6d,8a, and 8c were determined in […] PBM cells (3.8×10^5 cells/ml) cultured in the presence and absence of compounds under conditions similar to those used for the antiviral assay described above but without virus. The cells were counted after 6 days using a hemacytometer and the trypan blue exclusion method, as described by Schinazi et al., Antimicrobial Agents and Chemotherapy, 22(3), 499 (1982).
The effect of the compounds on the growth of uninfected human PBM cells in culture is used as an indicator of the toxicity of the test compound to the normal viability of cells. The IC50 is the concentration of compound which inhibits 50% of normal, uninfected, cell growth.

For series [2] the following is noted: infants and children, high dosages; cited from earlier work.
The next series relates to DNA. To be noted: Hahn et al. 1966; cited from earlier work.
The test system of series [3] is antimalarial and antiamoebic activity. To be noted: Hahn et al.; cited from earlier work.
In series [4] the test system is Plasmid pBR322 superhelical DNA. To be noted: reference value; cited from earlier work.

With `CN(C)CCNc1cc(-c2ccccn2)nc2ccccc12` [Quinoline 5a], the EC50 in the series on HIV-1 (strain LAV) was found to be 1.1 µM. The same measure, in the same setting: the result for `CCN(CCN(C)C)c1cc(-c2ccccn2)nc2ccccc12` [Quinoline 5b] reads 13.2 µM.

As to `CN1CCN(c2cc(-c3ccccn3)nc3ccccc23)CC1` [Quinoline 5d], the EC50 in the series with HIV-1 (strain LAV) amounted to 5.5 µM. For the compound `CN(C)CCNc1cc(-c2cccnc2)nc2ccccc12` [Quinoline 6a], the EC50 in the series on HIV-1 (strain LAV) was 1.5 µM. Besides, the CC50 at 144 h in series [1] is above 100 µM.

With `CCN(CCN(C)C)c1cc(-c2cccnc2)nc2ccccc12` [Quinoline 6b], the EC50 in the series with HIV-1 (strain LAV) was determined as 24.2 µM. As to `CN1CCN(c2cc(-c3cccnc3)nc3ccccc23)CC1` [Quinoline 6d], the EC50 with HIV-1 (strain LAV) was 1 µM. Further, the CC50 at 144 h in series [1] was above 100 µM. Turning to `CN1CCN(c2cc(-c3ccncc3)nc3ccccc23)CC1` [Quinoline 7c], the EC50 in the series with HIV-1 (strain LAV) came out at 68.2 µM. As for `CN(C)CCNc1cc(-c2ccco2)nc2ccccc12` [Quinoline 8a], the EC50 with HIV-1 (strain LAV) is 0.9 µM. The CC50 at 144 h in series [1] was above 100 µM. The like results for `CN1CCN(c2cc(-c3ccco3)nc3ccccc23)CC1` [Quinoline 8c] were, in that order, 1 µM and above 100 µM. Take `CN(C)CCNc1cc(-c2cccs2)nc2ccccc12` [Quinoline 9a]: the EC50 in the series with HIV-1 (strain LAV) was found to be 1 µM. As to `CCN(CCN(C)C)c1cc(-c2cccs2)nc2ccccc12` [Quinoline 9c], in the series on HIV-1 (strain LAV), the EC50 was determined as 32.4 µM.

`CCN(CC)CCCC(C)Nc1ccnc2cc(Cl)ccc12` (centres unmarked) [chloroquine, 7-chloro-4-(4-diethylamino-1-methylbutylamino)quinoline]: the “Adverse effects (in words)” value in series [2] is “Sudden deaths have been reported; also recorded: infants and children are extremely susceptible to adverse effects”. Besides, the “Inhibition of nucleic acid biosynthesis (in words)” value in the series on DNA is listed as “inhibits nucleic acid biosynthesis by forming a molecular complex with DNA”. Besides, the “Antimalarial and antiamoebic activity (in words)” value in series [3] was “have antimalarial and antiamoebic activity”. On to `CC[n+]1c(-c2ccccc2)c2cc(N)ccc2c2ccc(N)cc21` [ethidium], for which, in series [4], the Unwinding angle is given as 26. Turning to `CCN(CC)CCCC(C)Nc1c2ccc(Cl)cc2nc2ccc(OC)cc12` (centres unmarked) [quinacrine, 6-chloro-9-[[4-(diethylamino)-1-methylbutyl]amino]-2-methoxyacridine], in series [3], the “Antimalarial and antiamoebic activity (in words)” value was “have antimalarial and antiamoebic activity”.
